Broadly, the IC50 is the concentration at which inhibition is half-maximal.

19 compounds from US20260008768A1, “UREA DERIVATIVES FOR INHIBITING NLRP3 AND USES THEREOF” (VENTUS THERAPEUTICS U.S., INC., priority 2023, published 2026) can be followed below.

A value given as a limit tells only on which side of the number the result lay.

Assay [1] has as its target T1, human NLRP3 (Homo sapiens, UniProt Q96P20). Description: Scintillation Proximity (SPA) NLRP3 Assay, displacement of 3H-MCC950. Particulars: for IC50: displacement of 3H-MCC950 from human NLRP3; for fold improvement in binding activity (SPA IC50): relative to Comparative Example B1. In kind it is binding. The procedure, abridged:
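Human NLRP3 (350 nM) preincubated 15 min at RT with compound (5% DMSO final) in HEPES pH 7.5 buffer with 100 μM ADP, then 125 nM 3H-MCC950 added for 60 min. Copper PVT SPA beads added; counts read 6 h later. Specific binding = signal minus no-protein wells, duplicates averaged; IC50 reported.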
(In general: SPA uses beads or plates that emit light when radiolabelled molecules are held near them.)

Assay [2] addresses T1, human NLRP3. Briefly: Human Whole Blood (hWB) NLRP3 Assay (LPS/ATP, IL-1β). In kind it is cell-based. To be noted: Table B, activity class. Also noted: host or cells: human whole blood from healthy volunteers (A3). Here is the method: Human whole blood is drawn from healthy volunteers after obtaining written informed consent. Heparin lithium coated tubes are used to collect blood from volunteers. Blood samples are distributed on 96 well plates using 90 μl per well.
Priming procedure: Priming is performed by adding 5 μl of LPS (O26:B6; Sigma L-2654) at a final concentration of 1 μg/ml for 4.5 hours in a humidified incubator with 37° C., 5% CO2. Thirty minutes prior to NLRP3 activation, 5 μl of a 20× compound solution or vehicle (2% dimethylsulfoxide (DMSO)) is added to each well and plates were incubated on a shaker (450 rpm) in a humidified incubator with 37° C., 5% CO2.
Alternative priming procedure: Thirty minutes prior to LPS priming, 5 μl of a 20× compound solution or vehicle (2% dimethylsulfoxide (DMSO)) is added to each well and plates were incubated on a shaker (450 rpm) in a humidified incubator with 37° C., 5% CO2. Priming is performed by adding 5 μl of LPS (O26:B6; Sigma L-2654) at a final concentration of 1 μg/ml for 5 hours in a humidified incubator with 37° C., 5% CO2.
Activation is then performed by adding 3.3 μl of a 31×ATP solution per well. At the end of the 30 minutes stimulation, the plates are centrifuged (800 g, 10 min, room temperature) and the plasma from each well is frozen at −80° C. IL-1β levels in the supernatant were analyzed using a mesoscale discovery assay (MSD K151TUK) according to the manufacturers' instructions.
There is no detectable difference in assay results using the priming procedure versus the alternative priming procedure.
hWB NLRP3 IC50 assay results, as a measurement of whole blood potency, are provided in Table B. “A” activity=<1 uM; “B” activity=1-2 uM; “C” activity=>2-3 uM; “D” activity=>3 uM.

In assay [3] the target is T1, human NLRP3. Description: Human PBMC NLRP3 Assay (LPS priming, ATP stimulation, cytokine measurement). To be noted: for IC50: human PBMC, LPS + ATP. Also on record: host or cells: human PBMCs (A2); human whole blood from healthy volunteers (A3). In kind it is cell-based. As to the method: Reagents: Human PBMCs (Normal): iXCells Cat #10HU-003; RPMI 1640 medium with GlutaMAX: ThermoFisher Cat #61870127 (Complete Media: 4.5 g/L D-glucose, 10% FBS, 100 mM NaPyr, 1% Pen/Strep, 10 mM HEPES and 0.05 mM of ®-mercaptoethanol; Assay Media: 4.5 g/L D-glucose, 100 mM NaPyr, 1% Pen/Strep, 10 mM HEPES and 0.05 mM of mercaptoethanol; 96-well V-bottom Plates: Costar Cat #3894; LPS (E. coli O26:B6): Sigma Cat #L2654, stock 5 mg/mL in PBS; ATP: Sigma Cat #A6419, prepared in a 250 mM stock in 1 M HEPES (adjusted to pH 7.4).
Cryopreserved PBMCs were rapidly thawed in a 37° C. water bath for 2 min. Cells were then centrifuged at 1200 RPM for 5 min and resuspended in ˜50 mL of fresh RPMI 1640 Complete Medium. A count was undertaken using a hemocytometer and adjusted to 2.5×10^5 cells/mL. V-shaped 96-well plates were seeded with 200 μL of PBMCs (5×10^4) per well and subsequently incubated overnight at 37° C. with 5% CO2. Assay Media was then prepared containing 100 ng/ml of LPS. PBMCs were then centrifuged at 1,200 RPM for 5 min, serum containing media was aspirated, and 150 μL/well of Assay Media+LPS was immediately added. Assay Media without LPS was added in the untreated control wells. Cells were then primed with LPS for 4 h at 37° C. with 5% CO2. A concentration response curve (CRC) was prepared of 1000× test compound in 100% DMSO. The CRC was then diluted 1:50 in Assay Media and then further diluted by 1:5× in Assay Media resulting in a final 4×CRC in 0.4% DMSO/Assay Media. 50 μL/well of 4× test compound CRC or vehicle (0.4% DMSO/Assay Media) was then transferred into each well and subsequently incubated for 30 min at 37° C. with 5% CO2. Cells were stimulated by adding 4 μL of 250 mM ATP, using a 250 mM stock prepared in 1 M Hepes without further dilution (for a final concentration of 5 mM), for 1 h at 37° C. with 5% CO2 Plates were then centrifuged at 1200 RPM for 5 min; and 50 μl of the media was transferred to a clean 96-well storage plate for cytokine measurements using the mesoscale platform, and stored at −80° C. until analyzed. Compounds were added 30 minutes before priming the cells with LPS when TNFα was required to be quantified in the cytokine panel to confirm selectivity.
PBMC NLRP3 IC50 assay results, as a measurement of cellular potency, are provided in Table B. “A” activity=<0.01 uM; “B” activity=0.01-0.1 uM; “C” activity=>0.1-0.5 uM; “D” activity=>0.5 uM.

T1 sequence (Q96P20 whole entry): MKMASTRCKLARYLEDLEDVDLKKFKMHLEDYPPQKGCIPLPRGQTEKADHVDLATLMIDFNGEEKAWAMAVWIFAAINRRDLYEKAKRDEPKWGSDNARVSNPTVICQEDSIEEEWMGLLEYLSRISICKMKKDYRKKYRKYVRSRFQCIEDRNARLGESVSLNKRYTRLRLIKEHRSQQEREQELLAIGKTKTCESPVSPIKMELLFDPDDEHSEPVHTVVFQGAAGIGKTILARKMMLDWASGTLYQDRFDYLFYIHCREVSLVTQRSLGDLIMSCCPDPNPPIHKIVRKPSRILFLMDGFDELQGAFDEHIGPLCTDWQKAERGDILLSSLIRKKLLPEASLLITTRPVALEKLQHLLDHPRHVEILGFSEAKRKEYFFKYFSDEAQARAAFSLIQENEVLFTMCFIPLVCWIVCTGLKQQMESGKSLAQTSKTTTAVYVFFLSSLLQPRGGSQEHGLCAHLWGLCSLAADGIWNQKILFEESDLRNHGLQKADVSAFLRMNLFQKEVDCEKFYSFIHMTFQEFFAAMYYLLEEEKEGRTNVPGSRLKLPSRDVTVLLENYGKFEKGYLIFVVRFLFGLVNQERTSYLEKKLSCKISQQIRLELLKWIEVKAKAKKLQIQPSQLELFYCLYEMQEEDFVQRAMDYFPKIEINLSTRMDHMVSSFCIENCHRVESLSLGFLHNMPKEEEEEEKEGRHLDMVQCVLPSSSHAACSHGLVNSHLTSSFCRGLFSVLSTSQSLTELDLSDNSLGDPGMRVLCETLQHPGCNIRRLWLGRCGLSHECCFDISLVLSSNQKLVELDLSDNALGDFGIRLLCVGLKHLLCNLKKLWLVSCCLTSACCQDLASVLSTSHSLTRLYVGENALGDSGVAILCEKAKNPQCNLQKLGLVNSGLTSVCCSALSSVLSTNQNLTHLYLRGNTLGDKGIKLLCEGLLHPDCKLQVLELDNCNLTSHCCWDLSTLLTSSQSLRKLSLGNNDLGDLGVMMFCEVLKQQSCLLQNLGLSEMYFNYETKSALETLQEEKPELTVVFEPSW

Regarding `C[C@@H]1C[C@@H](NC(=O)N(C)c2ccc(OC(F)(F)F)cc2F)[C@H]2CC[C@@H]1N2c1nnn[nH]1` (single isomer, unassigned) [56A*], the IC50 was less than 1000 nM at human NLRP3 [1] (Table B, activity class) and less than 1000 nM on human NLRP3 [2].

For the compound `C[C@H]1CCN(c2nnn[nH]2)C[C@@H](NC(=O)N(C)c2ccc(OC(F)F)c(F)c2F)C1` (single isomer, unassigned) [40D*], the IC50 is 1000 to 10000 nM on human NLRP3 [1] (Table B, activity class) and greater than 3000 nM at human NLRP3 [2].

Take `C[C@@H]1CCN(c2nnn[nH]2)C[C@H](NC(=O)N(C)c2ccc(Cl)cc2Cl)C1` (single isomer, unassigned) [7A*]: the IC50 was less than 10 nM at human NLRP3 [3] (Table B, activity class); 9 nM on human NLRP3 [3] (Table C); less than 1000 nM on human NLRP3 [1] (Table B, activity class); 240 nM on human NLRP3 [1] (Table C).

Turning to `C[C@@H]1CCN(c2nnn[nH]2)C[C@H](NC(=O)N(C)c2ccc(C(F)(F)F)c(F)c2)C1` (single isomer, unassigned) [9A*], the IC50 is 10 to 100 nM on human NLRP3 [3] (Table B, activity class) and less than 1000 nM on human NLRP3 [1] (Table B, activity class).

Turning to `CN(C(=O)N[C@H]1CCCN(c2ccccc2)C1)c1ccc(Cl)cc1` [Comparative Example D2, (S)-1-(4-chlorophenyl)-1-methyl-3-(1-phenylpiperidin-3-yl)urea, reference compound], the IC50 on human NLRP3 [3] (Table C) was greater than 100000 nM.

`CN(C(=O)N[C@@H]1CCCN(c2nnn[nH]2)C1)c1ccc(Cl)cc1F` [Compound 66, (R)-3-(1-(1H-tetrazol-5-yl)piperidin-3-yl)-1-(4-chloro-2-fluorophenyl)-1-methylurea]: the IC50 at human NLRP3 [3] (Table B, activity class) was greater than 500 nM; at human NLRP3 [3] (Table C) it was 892 nM.

The compound `C[C@@H]1C[C@@H](NC(=O)N(C)c2ccc(OC(F)F)c(F)c2F)[C@H]2CC[C@@H]1N2c1nnn[nH]1` (single isomer, unassigned) [58A*] had an IC50 on human NLRP3 [2] of less than 1000 nM.

Consider `CN(C(=O)N[C@@H]1CCCN(c2nnn[nH]2)C1)c1ccc(Cl)cc1` [Compound 2A, (R)-3-(1-(1H-tetrazol-5-yl)piperidin-3-yl)-1-(4-chlorophenyl)-1-methylurea], for which the IC50 on human NLRP3 [3] (Table B, activity class) is 100 to 500 nM; on human NLRP3 [3] (Table C) it was 268 nM; on human NLRP3 [1] (Table B, activity class), 1000 to 10000 nM; on human NLRP3 [1] (Table C) it was 9700 nM. The “fold increase in potency as measured by PBMC IC50” value at human NLRP3 [3] (relative to Comparative Example A*) is on record as greater than 350 fold; on human NLRP3 [3] (relative to Comparative Example B2), greater than 15 fold. The “fold improvement in potency (PBMC IC50)” value at human NLRP3 [3] (relative to Comparative Example B1) is greater than 18 fold; on human NLRP3 [3] (relative to Comparative Example C1), 40 fold; at human NLRP3 [3] (relative to Comparative Example C2), greater than 200 fold. In addition, the “fold increase in potency (PBMC IC50)” value at human NLRP3 [3] (relative to Comparative Example D1) was 146 fold; on human NLRP3 [3] (relative to Comparative Example D2), greater than 350 fold; at human NLRP3 [3] (relative to Comparative Example F), 58 fold; at human NLRP3 [3] (relative to Comparative Example G), greater than 350 fold; at human NLRP3 [3] (relative to Comparative Example H), 39 fold; at human NLRP3 [3] (relative to Comparative Example J1) it was greater than 350 fold. Also, the “fold increase in potency (PBMC IC50)” value on human NLRP3 [3] (relative to Comparative Example J2) is reported as greater than 350 fold. Also, the “fold improvement in binding activity (SPA IC50)” value at human NLRP3 [1] was greater than 19 fold.

Regarding `CN(C(=O)N[C@@H]1CCN(c2nnn[nH]2)C1)c1ccc(Cl)cc1` (single isomer, unassigned) [Comparative Example A*, reference compound], the IC50 on human NLRP3 [3] (Table C) was greater than 100000 nM.

On to `CN(C(=O)N(C)[C@@H]1CCCN(c2nnn[nH]2)C1)c1ccc(Cl)cc1` [Comparative Example C2, (R)-1-(1-(1H-tetrazol-5-yl)piperidin-3-yl)-3-(4-chlorophenyl)-1,3-dimethylurea, reference compound], for which the IC50 at human NLRP3 [3] (Table C) stood at 58100 nM.

As to `O=C(N[C@@H]1CCCN(c2ccccc2)C1)c1ccc(Cl)cc1` [Comparative Example J1, (R)-4-chloro-N-(1-phenylpiperidin-3-yl)benzamide, reference compound], the IC50 at human NLRP3 [3] (Table C) was greater than 100000 nM.

With `O=C(N[C@@H]1CCCN(c2nnn[nH]2)C1)c1ccc(Cl)cc1` [Comparative Example G, (R)-N-(1-(1H-tetrazol-5-yl)piperidin-3-yl)-4-chlorobenzamide, reference compound], the IC50 on human NLRP3 [3] (Table C) was greater than 100000 nM.

As to `O=C(Nc1ccc(Cl)cc1)Nc1cccc(-c2nnn[nH]2)c1` [Comparative Example B1, 1-(3-(1H-tetrazol-5-yl)phenyl)-3-(4-chlorophenyl)urea, reference compound], the IC50 on human NLRP3 [3] (Table C) was greater than 5000 nM; at human NLRP3 [1] (Table C) it was 190000 nM.

Take `C[C@@H]1CCN(c2nnn[nH]2)C[C@H](NC(=O)N(C)c2ccc(C3CC3)cc2)C1` (single isomer, unassigned) [8A*]: the IC50 on human NLRP3 [3] (Table B, activity class) was less than 10 nM; on human NLRP3 [1] (Table B, activity class), less than 1000 nM.

For `CN(C(=O)Nc1cccc(-c2nnn[nH]2)c1)c1ccc(Cl)cc1` [Comparative Example B2, 3-(3-(1H-tetrazol-5-yl)phenyl)-1-(4-chlorophenyl)-1-methylurea, reference compound], the IC50 was found to be 4200 nM at human NLRP3 [3] (Table C) and 12500 nM at human NLRP3 [1] (Table C). The “fold improvement in binding activity (SPA IC50)” value at human NLRP3 [1] is given as greater than 15 fold.

For `CCN(C(=O)N[C@@H]1C[C@H](C)CN(c2nnn[nH]2)C1)c1ccc(Cl)cc1` [Compound 6A, 1-(4-chlorophenyl)-1-ethyl-3-((3R,5S)-5-methyl-1-(1H-tetrazol-5-yl)piperidin-3-yl)urea], the IC50 at human NLRP3 [3] (Table B, activity class) was 10 to 100 nM; on human NLRP3 [1] (Table B, activity class), less than 1000 nM.

As for `O=C(N[C@H]1CCCN(c2ccccc2)C1)c1ccc(Cl)cc1` [Comparative Example J2, (S)-4-chloro-N-(1-phenylpiperidin-3-yl)benzamide, reference compound], the IC50 on human NLRP3 [3] (Table C) was greater than 100000 nM.

Take `CN(C(=O)N[C@@H]1CCCN(c2nnnn2C)C1)c1ccc(Cl)cc1` [Comparative Example F, (R)-1-(4-chlorophenyl)-1-methyl-3-(1-(1-methy1-1H-tetrazol-5-yl)piperidin-3-yl)urea, reference compound]: the IC50 at human NLRP3 [3] (Table C) was found to be 15500 nM.

Turning to `CN(C(=O)N[C@@H]1CCCN(c2ccccc2)C1)c1ccc(Cl)cc1` [Comparative Example D1, (R)-1-(4-chlorophenyl)-1-methy1-3-(1-phenylpiperidin-3-yl)urea, reference compound], on human NLRP3 [3] (Table C), the IC50 came to 39100 nM.
